According to US4665092A, “Styrene derivatives, their use as antiallergic agents and intemediate epoxides for their synthesis” (Ortho Pharmaceutical Corporation, priority 1985, dated 1987):

Test: Anti-allergic / anti-inflammatory activity of the invention compounds; the test is not specified (5-lipoxygenase inhibition in RBL-1 cells and active lung anaphylaxis in guinea-pigs are described)
Settings: no IC50 or percent inhibition printed
Procedure: The compounds of the invention of formulae (I) and (II) may be used as pharmaceutical agents in the treatment of inflammation and/or allergic reactions. […] Such testing procedures were carried out on compounds of the invention as described below:
Rat basophilic leukemia cells (RBL-1) were grown in Eagle's Minimal Essential Medium containing 10% fetal calf serum, 5% calf serum, 1% glutamine and 50 mg/L gentamycin and were maintained at 37° C. in a atmosphere containing 5% CO2. Exponentially growing cells were harvested by centrifugation at 400xg for 10 minutes at 4° C. and were washed once with Dulbecco's phosphate buffered saline containing 0.87 mM CaCl2. The cells were resuspended in the same buffer at a concentration of 1.85×10^7 cells/ml. […]
In order to isolate the Δ5 -lipoxygenase product ^14 C-5-HETE that was formed from arachidonic acid, each assay tube was extracted once with 6 volumes of anhydrous diethyl ether. In most assays, the recovery of product was estimated by determining the total amount of radioactivity recovered after extraction. In the remaining assays the recovery of ^14 C-5-HETE was monitored by addition of trace quantities of ^3 H-5-HETE (New England Nuclear) prior to extraction. […] The amount of ^14 C-5-HETE presented was quantitated by liquid scintillation counting in Aquasol II (New England Nuclear) and corrected for recovery. […]

SMILES | activity of the compound (statement in words, figures not given)
O[C@@H](CCCCOC1CCCCO1)[C@@H](/C=C/c1ccccc1)Sc1ccccc1 (stereo partly drawn) [Example 1g, (3R,4S)-4-Hydroxy-1-phenyl-3-phenylthio-8-(2-tetrahydropyranyloxy)-1(E)-octene] | Particularly active
CC(C)=CCC[C@](C)(O)[C@@H](/C=C\C=C\c1ccccc1)Sc1ccccc1 [Example 7, (5R,6S) 1-Phenyl-5-phenylthio-6-hydroxy-6,10-dimethylundeca-(1E,3Z,9)-triene Monoh ydrate] | Particularly active
